Reference: patent US20210228467A1, “High-Potency Vitamin C Topical Formulations” (Baek Clinical Inc., priority 2018, published 2021)
Where two headings read alike, the source gives them in different places. One block for each compound: values may come before it.

Tests used:
[1] = use of 4% HQ versus 5% Vitamin C; cited from earlier work
[2] = Solubility of optional additional components in polyol solvents; type: physicochemical
Description: Additional ingredients were chosen for their compatibility with (e.g., miscibility in) 1,3 propanediol, 1,2 propanediol, and 1,3 butanediol.

[3] = cited from earlier work
[4] = Solubilization / recrystallization of AA with urea in 1,3 propanediol; type: physicochemical
Description: Next, concentrations of ascorbic acid beyond the aforementioned maximum concentration are solubilized, using urea as a co-solvent.

[5] = Comparative studies: solubilization with heating and crystallization on room temperature storage; type: physicochemical; conditions: ascorbic acid together with urea in propylene glycol, butylene glycol and propanediol
Procedure: This example was reproduced.
All mixtures were heated to 85° C.

[6] = 20% urea solution, cited from earlier work

Compound: O=C1O[C@H]([C@@H](O)CO)C(O)=C1O [AA, L-ascorbic acid]
improvement [1]: 62.5%

Compound: COc1cc(CC(C(C)=O)C(C)=O)ccc1O [Acetyl zingerone]
solubility ([2]; in 1,3 propanediol, 1,2 propanediol and 1,3 butanediol at 0.5-1%): readily soluble

Compound: O=C(O)CCCCCCCC(=O)O [AzA, Azelaic acid, reference compound]
pKa [3]: 4.15
concentration solubilized ([2]; in 1,3 propanediol): up to 10%
concentration solubilized ([2]; with 10% AA, 5% U in a 1,3 propanediol base): 7.5%

Compound: Oc1ccc(O)cc1 [HQ, hydroquinone]
improvement [1]: 93%
side-effects [1]: 68.7%

Compound: Madecassoside
solubility ([2]; at a concentration of 0.2% in 1,3 propanediol, 1,2 propanediol and 1,3 butanediol): soluble

Now from value to compound, other results behind:

minimum amount U required to solubilize 20% AA [4]: ~10%
saturation of U reached before recrystallization of U [4]: ~27.8%
maximum concentrations soluble before urea starts to precipitate (the ceiling) [5]: 20%
Compound: NC(N)=O [U, urea]
pH ([6]; after 11 months at room temperature): 8.8
pH ([6]; start): 7.4

solubility ([2]; in 1,3-propanediol): shows solubility
Compound: CC1(C)[C@@H](O[C@H]2O[C@H](C(=O)O)[C@@H](O)[C@H](O)[C@H]2O[C@@H]2O[C@H](C(=O)O)[C@@H](O)[C@H](O)[C@H]2O)CC[C@]2(C)[C@H]3C(=O)C=C4[C@@H]5C[C@@](C)(C(=O)O)CC[C@]5(C)CC[C@@]4(C)[C@]3(C)CC[C@@H]12 [glycyrrhizic acid, Glycyrrhizic acid]
